Reference: US9765075B2, “Substituted bridged urea analogs as sirtuin modulators” (GLAXOSMITHKLINE LLC, priority 2013, dated 2017)
Substitutions are numbered along the chain they refer to. pEC50: −log10 of the molar value.

Legend:
Assay in all cases: SIRT1 activation dose-response, OAcADPr assay with Ac-p53(W5) substrate
Assay type in all cases: biochemical
full-length hSIRT1 V224A = target: T1, full-length hSIRT1 V224A (Homo sapiens, UniProt Q96EB6, V224A); details: for pEC50: hSIRT1 V224A, activation dose-response, Ac-p53(W5) substrate
T1 construct: The following point mutants of full-length hSIRT1 were generated; His6 (C); made in house
T1 sequence (Q96EB6 1-747 V224A): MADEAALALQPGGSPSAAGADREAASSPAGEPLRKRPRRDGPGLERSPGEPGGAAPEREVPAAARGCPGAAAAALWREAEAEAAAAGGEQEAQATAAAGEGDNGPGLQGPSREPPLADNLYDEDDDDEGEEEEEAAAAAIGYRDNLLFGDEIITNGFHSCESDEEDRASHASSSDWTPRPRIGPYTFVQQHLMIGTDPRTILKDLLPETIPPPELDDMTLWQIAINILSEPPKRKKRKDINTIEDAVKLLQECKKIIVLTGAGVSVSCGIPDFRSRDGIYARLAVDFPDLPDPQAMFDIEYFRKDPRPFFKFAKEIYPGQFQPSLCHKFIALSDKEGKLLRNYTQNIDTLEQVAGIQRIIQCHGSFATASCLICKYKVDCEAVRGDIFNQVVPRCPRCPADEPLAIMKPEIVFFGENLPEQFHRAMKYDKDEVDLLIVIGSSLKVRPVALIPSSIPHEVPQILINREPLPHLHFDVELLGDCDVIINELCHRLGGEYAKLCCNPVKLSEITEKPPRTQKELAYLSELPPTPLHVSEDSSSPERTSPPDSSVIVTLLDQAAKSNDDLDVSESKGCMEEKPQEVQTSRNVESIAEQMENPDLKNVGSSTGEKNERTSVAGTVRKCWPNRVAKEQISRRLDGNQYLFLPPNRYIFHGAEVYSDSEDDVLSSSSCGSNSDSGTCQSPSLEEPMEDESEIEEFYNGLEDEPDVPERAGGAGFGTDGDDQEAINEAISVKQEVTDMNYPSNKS
Protocol: (§1) SIRT1 activation and inhibition assays were run in reaction buffer with 0.05% BSA at 25° C. and analyzed using the OAcADPr assay. Enzyme and compound were pre-incubated for 20 minutes before addition of substrates. […] The dose-dependence of five compounds was tested and the fold-activation data were described by Eq. 1
(§2) [formula] where vx/v0 is the ratio of the reaction rate in the presence (vx) versus absence (v0) of activator (X), RVmax is the relative velocity at infinite activator concentration, EC50 is the concentration of activator required to produce one-half RVmax and b is the minimum value of vx/v0.

full-length hSIRT1 N226A = target: T2, full-length hSIRT1 N226A (Homo sapiens, UniProt Q96EB6, N226A); details: for pEC50: hSIRT1 N226A, activation dose-response, Ac-p53(W5) substrate
T2 construct: The following point mutants of full-length hSIRT1 were generated; His6 (C); made in house
T2 sequence (Q96EB6 1-747 N226A): T1 sequence (Q96EB6 1-747 V224A) with A224V, N226A
Protocol: as §1, §2

full-length hSIRT1 I227A = target: T3, full-length hSIRT1 I227A (Homo sapiens, UniProt Q96EB6, I227A); details: for pEC50: hSIRT1 I227A, activation dose-response, Ac-p53(W5) substrate
T3 construct: The following point mutants of full-length hSIRT1 were generated; His6 (C); made in house
T3 sequence (Q96EB6 1-747 I227A): T1 sequence (Q96EB6 1-747 V224A) with A224V, I227A
Protocol: as §1, §2

Q: `O=C(Nc1ccccn1)N1c2nc(-c3cccc(C(F)(F)F)c3)ccc2N2CC[C@H]1C2` [Example 7] was tested. Which “EC50 fold shift (mutant EC50/wild-type EC50)” value (full-length hSIRT1 V224A) did it give?
A: 1.18

Q: And the “RVmax fold shift = (wild-type RVmax−1)/(mutant RVmax−1)” value (“RVmax fold shift =” below) (full-length hSIRT1 V224A)?
A: 0.72

Q: And the pEC50 (full-length hSIRT1 V224A)?
A: 5.59

Q: And the “EC50 fold shift (mutant EC50/wild-type EC50)” value (full-length hSIRT1 N226A)?
A: 1.78

Q: And the “RVmax fold shift =” value (full-length hSIRT1 N226A)?
A: 1.32

Q: And the pEC50 (full-length hSIRT1 N226A)?
A: 5.41

Q: What about the “EC50 fold shift (mutant EC50/wild-type EC50)” value (full-length hSIRT1 I227A) of the same compound?
A: 3.07

Q: And the “RVmax fold shift =” value (full-length hSIRT1 I227A)?
A: 0.85

Q: And the pEC50 (full-length hSIRT1 I227A)?
A: 5.17

Q: Which results are given for `Cc1cnc2c(NC(=O)N3c4nc(-c5cccc(C(F)(F)F)c5)ccc4N4CC[C@H]3C4)cccc2n1` [Example 8]?
A: EC50 fold shift (mutant EC50/wild-type EC50) (full-length hSIRT1 V224A): 1.87; RVmax fold shift = (wild-type RVmax−1)/(mutant RVmax−1) (full-length hSIRT1 V224A): 0.79; pEC50 (full-length hSIRT1 V224A): 6.05; EC50 fold shift (mutant EC50/wild-type EC50) (full-length hSIRT1 N226A): 2.15; RVmax fold shift = (wild-type RVmax−1)/(mutant RVmax−1) (full-length hSIRT1 N226A): 1.34; pEC50 (full-length hSIRT1 N226A): 5.99; EC50 fold shift (mutant EC50/wild-type EC50) (full-length hSIRT1 I227A): 6.21; RVmax fold shift = (wild-type RVmax−1)/(mutant RVmax−1) (full-length hSIRT1 I227A): 1.06; pEC50 (full-length hSIRT1 I227A): 5.53
